For 14 molecules, GI50 and TGI results are on record in PubChem BioAssay (NCI).

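Each compound was tested at five concentrations against cells in 96-well plates for 48 hours. At the GI50, growth is halved. TGI denotes the concentration required for complete inhibition of growth.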 Bounds are passed on as bounds.

Among the test systems are MOLT-4 leukemia; A549 NSCLC; NCI-H460 lung; SF-295 CNS; SN12C renal; HS 578T breast; PC-3 prostate; SW-620 colon; NCI/ADR-RES ovarian; MALME-3M melanoma.
Common to all, as to experiment: DTP human tumour cell line panel, 48 h

In the case of `CC(C)C[CH2][Ge]([CH2]CC(C)C)([CH2]CC(C)C)[CH2]CC(C)C`, the GI50 in the assay on MOLT-4 leukemia, in the assay with A549 NSCLC, with NCI-H460 lung, in the assay with SF-295 CNS, in the assay with SN12C renal and with HS 578T breast was greater than 100 µM throughout. Also, the GI50 with PC-3 prostate, in the assay on SW-620 colon and in the assay on NCI/ADR-RES ovarian was greater than 100 µM in each case. Besides, the TGI with MOLT-4 leukemia, in the assay with A549 NSCLC, in the assay with NCI-H460 lung, in the assay with SF-295 CNS, with SN12C renal and with HS 578T breast was greater than 100 µM throughout. In addition, the TGI with PC-3 prostate, in the assay with SW-620 colon and with NCI/ADR-RES ovarian was greater than 100 µM each time.
On to `Nc1c(C(=O)NC23CC4CC(CC(C4)C2)C3)[n+]([O-])c2ccccc2[n+]1[O-]`, for which the concentration for total growth inhibition (TGI) with MOLT-4 leukemia, with A549 NSCLC, in the assay with MALME-3M melanoma, in the assay on NCI-H460 lung, with SF-295 CNS and with SN12C renal was greater than 100 µM throughout. In the assay with SW-620 colon, this molecule registered a concentration for total growth inhibition (TGI) greater than 100 µM.
With `ClC1c2ccccc2C2(c3ccccc3)OOC1(c1ccccc1)O2` (centres undefined), the total growth inhibition concentration (TGI) in the assay on MOLT-4 leukemia came to 3.56 µM; in the assay on A549 NSCLC it was 3.64 µM; in the assay on MALME-3M melanoma it was 7.14 µM; in the assay on NCI-H460 lung, 3.13 µM; with SF-295 CNS it was 5.85 µM; in the assay with SN12C renal, 2.9 µM. In addition, in the assay with SW-620 colon, the TGI was found to be 2.96 µM.
With `O=C(Nc1ccc(Nc2ccncc2)cc1)c1ccc(Nc2ccnc3ccc([N+](=O)[O-])cc23)cc1[N+](=O)[O-]`, the GI50 in the assay with MOLT-4 leukemia is 43.9 µM; in the assay with A549 NSCLC, 3.95 µM; in the assay on NCI-H460 lung it was 9.96 µM; in the assay on SF-295 CNS, 6.69 µM; in the assay with SN12C renal, 20.4 µM; in the assay on HS 578T breast it was 0.691 µM. In addition, the values for the GI50 with PC-3 prostate, in the assay with SW-620 colon and in the assay on NCI/ADR-RES ovarian were 5.05 µM, 26.8 µM and 12.8 µM, respectively. In addition, the total growth inhibition concentration (TGI) in the assay on MOLT-4 leukemia is greater than 100 µM; in the assay with A549 NSCLC it was greater than 44.2 µM; in the assay on NCI-H460 lung, greater than 100 µM; in the assay with SF-295 CNS, 98.3 µM; with SN12C renal, greater than 55.5 µM; in the assay on PC-3 prostate it was greater than 40 µM. The figures for the concentration for total growth inhibition (TGI) in the assay on SW-620 colon and in the assay on NCI/ADR-RES ovarian were greater than 55.5 µM and greater than 100 µM, respectively.
For `CC(O)C(NC(=O)c1ccccc1)C(=O)N(Cc1ccccc1)Cc1ccccc1` (centres undefined), the TGI in the assay on MOLT-4 leukemia, with A549 NSCLC, in the assay with MALME-3M melanoma, in the assay with NCI-H460 lung, with SF-295 CNS and with SN12C renal was greater than 100 µM each time. In the assay with SW-620 colon, the concentration for total growth inhibition (TGI) was greater than 100 µM.
Consider `CCC(C)c1cccc(C)c1NC(=O)C(=O)Cc1nc2ccccc2s1` (centres undefined), for which the concentration for total growth inhibition (TGI) in the assay on MOLT-4 leukemia, with A549 NSCLC, in the assay on MALME-3M melanoma, in the assay with NCI-H460 lung, with SF-295 CNS and in the assay with SN12C renal was greater than 100 µM each time. The molecule also returned a TGI with SW-620 colon greater than 100 µM.
`COc1ccc(/C=C\c2cc(OC)c(OC)c(OC)c2)cc1OCC(=O)Nc1nc2ccccc2s1`: the GI50 was 0.366 µM in the assay on MOLT-4 leukemia; 0.31 µM in the assay on A549 NSCLC; 0.338 µM in the assay with MALME-3M melanoma; 0.0476 µM with NCI-H460 lung; 0.22 µM with SF-295 CNS; 0.431 µM with SN12C renal. Further, the GI50 in the assay with HS 578T breast is 26 µM; in the assay on PC-3 prostate it was 0.183 µM; with SW-620 colon, 0.0359 µM. In addition, the concentration for total growth inhibition (TGI) in the assay with MOLT-4 leukemia was greater than 100 µM; with A549 NSCLC it was greater than 100 µM; in the assay on MALME-3M melanoma, greater than 85.3 µM; in the assay with NCI-H460 lung, greater than 100 µM; in the assay on SF-295 CNS, 0.646 µM; with SN12C renal it was greater than 100 µM. The concentration for total growth inhibition (TGI) with HS 578T breast, in the assay with PC-3 prostate and in the assay on SW-620 colon was greater than 100 µM throughout.
Consider `CN(C)CCNC(=O)c1c2ccccc2cc2ccccc12`, for which the concentration for total growth inhibition (TGI) in the assay on MOLT-4 leukemia was 45 µM; in the assay on A549 NSCLC, greater than 100 µM; in the assay on MALME-3M melanoma, greater than 100 µM; with NCI-H460 lung, greater than 100 µM; in the assay on SF-295 CNS, greater than 100 µM; in the assay with SN12C renal it was greater than 100 µM. For the same molecule, the total growth inhibition concentration (TGI) in the assay on SW-620 colon was greater than 100 µM.
For `C[N+](C)(C)CC(CC(=O)[O-])C1CC1` (centres undefined), the TGI in the assay on MOLT-4 leukemia, in the assay on A549 NSCLC, in the assay on MALME-3M melanoma, in the assay with NCI-H460 lung, in the assay with SF-295 CNS and in the assay with SN12C renal was greater than 100 µM in each case. In the assay with SW-620 colon, this molecule yielded a total growth inhibition concentration (TGI) greater than 100 µM.
Take `O=c1ccn(C2(CO)C=C(CO)C(O)C2O)c(=O)[nH]1` (centres undefined): the concentration for total growth inhibition (TGI) in the assay with MOLT-4 leukemia, in the assay with A549 NSCLC, with MALME-3M melanoma, in the assay with NCI-H460 lung, in the assay with SN12C renal and in the assay with SW-620 colon was greater than 25.7 µM throughout.
Regarding `CNc1ccc([N+](=O)[O-])c2c(NCCCN(C)C)ccnc12`, the TGI in the assay on MOLT-4 leukemia, in the assay with A549 NSCLC, in the assay on MALME-3M melanoma, in the assay on NCI-H460 lung, in the assay with SF-295 CNS and with SN12C renal was greater than 100 µM in each case. The molecule also came in with a TGI with SW-620 colon greater than 100 µM.
Regarding `O=C(Oc1ccc2c(-c3ccccc3)c(C(=O)Nc3ccc(Cl)cc3)c(=O)oc2c1)c1ccccc1`, the total growth inhibition concentration (TGI) with MOLT-4 leukemia, in the assay with A549 NSCLC, with MALME-3M melanoma, in the assay with NCI-H460 lung, in the assay on SF-295 CNS and in the assay with SN12C renal was greater than 100 µM each time. The concentration for total growth inhibition (TGI) in the assay on SW-620 colon was greater than 100 µM.
For `CN1C(=O)CCC1c1ccc2c(c1)oc(=O)n2C` (centres undefined), the TGI in the assay with MOLT-4 leukemia, in the assay with A549 NSCLC, with MALME-3M melanoma, in the assay on NCI-H460 lung, in the assay with SF-295 CNS and with SN12C renal was greater than 100 µM in each case. In the assay on SW-620 colon, the TGI was greater than 100 µM.
Consider `NC(CCc1ncc(-c2ccccc2)s1)C(=O)O` (centres undefined), for which the TGI in the assay with MOLT-4 leukemia, in the assay on A549 NSCLC, with MALME-3M melanoma, in the assay on NCI-H460 lung, with SF-295 CNS and with SN12C renal was greater than 100 µM each time. For the same molecule, the concentration for total growth inhibition (TGI) in the assay on SW-620 colon was greater than 100 µM.
